# According to PubChem BioAssay (NCI):
#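 96-well plates; 48 h exposure; 5 concentrations. Endpoints by linear interpolation between flanking doses. Not reached: highest tested concentration assigned. Abbreviation: GI50, concentration required for 50% inhibition of growth. TGI is the concentration that stops growth completely.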
# Key:
# Test in all cases: NCI tumour cell line growth inhibition, 48 h
# OVCAR-5 ovarian = test system: OVCAR-5 ovarian
# LOX IMVI melanoma = test system: LOX IMVI melanoma
# HCT-15 colon = test system: HCT-15 colon
# A549 NSCLC = test system: A549 NSCLC
# 786-0 renal = test system: 786-0 renal
# NCI-H23 lung = test system: NCI-H23 lung
# RPMI-8226 leukemia = test system: RPMI-8226 leukemia
# HOP-92 NSCLC = test system: HOP-92 NSCLC
# SNB-19 CNS = test system: SNB-19 CNS
# EKVX NSCLC = test system: EKVX NSCLC
# SF-268 CNS = test system: SF-268 CNS
# M14 melanoma = test system: M14 melanoma
# SK-MEL-28 melanoma = test system: SK-MEL-28 melanoma
# TK-10 renal = test system: TK-10 renal
# DU-145 prostate = test system: DU-145 prostate
# SK-OV-3 ovarian = test system: SK-OV-3 ovarian
# RXF 393 renal = test system: RXF 393 renal
# OVCAR-4 ovarian = test system: OVCAR-4 ovarian
# HOP-62 NSCLC = test system: HOP-62 NSCLC
# SNB-75 CNS = test system: SNB-75 CNS
# KM12 colon = test system: KM12 colon
# SN12C renal = test system: SN12C renal
# SK-MEL-5 melanoma = test system: SK-MEL-5 melanoma
# K-562 leukemia = test system: K-562 leukemia
# COLO 205 colon = test system: COLO 205 colon
# SK-MEL-2 melanoma = test system: SK-MEL-2 melanoma
# HCT-116 colon = test system: HCT-116 colon
# NCI/ADR-RES ovarian = test system: NCI/ADR-RES ovarian
# ACHN renal = test system: ACHN renal
# SF-539 CNS = test system: SF-539 CNS
# MALME-3M melanoma = test system: MALME-3M melanoma
# OVCAR-8 ovarian = test system: OVCAR-8 ovarian
# A498 renal = test system: A498 renal
# MOLT-4 leukemia = test system: MOLT-4 leukemia
# HT29 colon = test system: HT29 colon
# NCI-H226 lung = test system: NCI-H226 lung
# UO-31 renal = test system: UO-31 renal
# UACC-257 melanoma = test system: UACC-257 melanoma
# T-47D breast = test system: T-47D breast
# MCF7 breast = test system: MCF7 breast
# MDA-MB-231 breast = test system: MDA-MB-231 breast
# MDA-MB-435 = test system: MDA-MB-435
# CCRF-CEM leukemia = test system: CCRF-CEM leukemia
# UACC-62 melanoma = test system: UACC-62 melanoma
# CAKI-1 renal = test system: CAKI-1 renal
# IGROV1 ovarian = test system: IGROV1 ovarian
# NCI-H522 lung = test system: NCI-H522 lung
# SW-620 colon = test system: SW-620 colon
# U251 CNS = test system: U251 CNS
# HS 578T breast = test system: HS 578T breast
# OVCAR-3 ovarian = test system: OVCAR-3 ovarian
# BT-549 breast = test system: BT-549 breast
# PC-3 prostate = test system: PC-3 prostate
# SF-295 CNS = test system: SF-295 CNS
# NCI-H460 lung = test system: NCI-H460 lung
# HL-60(TB) leukemia = test system: HL-60(TB) leukemia
# HCC-2998 colon = test system: HCC-2998 colon
compound,measurement,setting,value
C=C(C)[C@@H]1CC[C@]2(COC(C)=O)CC[C@]3(C)[C@H](CC[C@@H]4[C@@]5(C)CCCN(C(C)=O)C(C)(C)[C@@H]5CC[C@]43C)[C@@H]12,GI50,OVCAR-5 ovarian,1660 nM
same,TGI,OVCAR-5 ovarian,3190 nM
same,GI50,LOX IMVI melanoma,1450 nM
same,TGI,LOX IMVI melanoma,2760 nM
same,GI50,HCT-15 colon,1650 nM
same,TGI,HCT-15 colon,3050 nM
same,GI50,A549 NSCLC,1690 nM
same,TGI,A549 NSCLC,3230 nM
same,GI50,786-0 renal,1750 nM
same,TGI,786-0 renal,3220 nM
same,GI50,NCI-H23 lung,1890 nM
same,TGI,NCI-H23 lung,3530 nM
same,GI50,RPMI-8226 leukemia,1980 nM
same,TGI,RPMI-8226 leukemia,4190 nM
same,GI50,HOP-92 NSCLC,1310 nM
same,TGI,HOP-92 NSCLC,2700 nM
same,GI50,SNB-19 CNS,1810 nM
same,TGI,SNB-19 CNS,3270 nM
same,GI50,EKVX NSCLC,1580 nM
same,TGI,EKVX NSCLC,3200 nM
same,GI50,SF-268 CNS,3370 nM
same,TGI,SF-268 CNS,13500 nM
same,GI50,M14 melanoma,1900 nM
same,TGI,M14 melanoma,3920 nM
same,GI50,SK-MEL-28 melanoma,1820 nM
same,TGI,SK-MEL-28 melanoma,3330 nM
same,GI50,TK-10 renal,1710 nM
same,TGI,TK-10 renal,3180 nM
same,GI50,DU-145 prostate,1750 nM
same,TGI,DU-145 prostate,3290 nM
same,GI50,SK-OV-3 ovarian,1970 nM
same,TGI,SK-OV-3 ovarian,4190 nM
same,GI50,RXF 393 renal,1590 nM
same,TGI,RXF 393 renal,3020 nM
same,GI50,OVCAR-4 ovarian,1570 nM
same,TGI,OVCAR-4 ovarian,3130 nM
same,GI50,HOP-62 NSCLC,1690 nM
same,TGI,HOP-62 NSCLC,3160 nM
same,GI50,SNB-75 CNS,1480 nM
same,TGI,SNB-75 CNS,2880 nM
same,GI50,KM12 colon,1830 nM
same,TGI,KM12 colon,3420 nM
same,GI50,SN12C renal,1750 nM
same,TGI,SN12C renal,3330 nM
same,GI50,SK-MEL-5 melanoma,1780 nM
same,TGI,SK-MEL-5 melanoma,3190 nM
same,GI50,K-562 leukemia,1580 nM
same,TGI,K-562 leukemia,4140 nM
same,GI50,COLO 205 colon,1190 nM
same,TGI,COLO 205 colon,2550 nM
same,GI50,SK-MEL-2 melanoma,1880 nM
same,TGI,SK-MEL-2 melanoma,3540 nM
same,GI50,HCT-116 colon,1770 nM
same,TGI,HCT-116 colon,3310 nM
same,GI50,NCI/ADR-RES ovarian,1890 nM
same,TGI,NCI/ADR-RES ovarian,3680 nM
same,GI50,ACHN renal,1700 nM
same,TGI,ACHN renal,3070 nM
same,GI50,SF-539 CNS,1670 nM
same,TGI,SF-539 CNS,3060 nM
same,GI50,MALME-3M melanoma,1570 nM
same,TGI,MALME-3M melanoma,3050 nM
same,GI50,OVCAR-8 ovarian,1840 nM
same,TGI,OVCAR-8 ovarian,3420 nM
same,GI50,A498 renal,9840 nM
same,TGI,A498 renal,23400 nM
same,GI50,MOLT-4 leukemia,1840 nM
same,TGI,MOLT-4 leukemia,4200 nM
same,GI50,HT29 colon,1520 nM
same,TGI,HT29 colon,2950 nM
same,GI50,NCI-H226 lung,2200 nM
same,TGI,NCI-H226 lung,5040 nM
same,GI50,UO-31 renal,1380 nM
same,TGI,UO-31 renal,2680 nM
same,GI50,UACC-257 melanoma,1740 nM
same,TGI,UACC-257 melanoma,3310 nM
same,GI50,T-47D breast,1630 nM
same,TGI,T-47D breast,3220 nM
same,GI50,MCF7 breast,1450 nM
same,TGI,MCF7 breast,3130 nM
same,GI50,MDA-MB-231 breast,1750 nM
same,TGI,MDA-MB-231 breast,3460 nM
same,GI50,MDA-MB-435,1480 nM
same,TGI,MDA-MB-435,2850 nM
same,GI50,CCRF-CEM leukemia,1870 nM
same,TGI,CCRF-CEM leukemia,4950 nM
same,GI50,UACC-62 melanoma,1790 nM
same,TGI,UACC-62 melanoma,3230 nM
same,GI50,CAKI-1 renal,1580 nM
same,TGI,CAKI-1 renal,2960 nM
same,GI50,IGROV1 ovarian,1810 nM
same,TGI,IGROV1 ovarian,3370 nM
same,GI50,NCI-H522 lung,1650 nM
same,TGI,NCI-H522 lung,3240 nM
same,GI50,SW-620 colon,1750 nM
same,TGI,SW-620 colon,3470 nM
same,GI50,U251 CNS,1690 nM
same,TGI,U251 CNS,3150 nM
same,GI50,HS 578T breast,1850 nM
same,TGI,HS 578T breast,4050 nM
same,GI50,OVCAR-3 ovarian,1930 nM
same,TGI,OVCAR-3 ovarian,3750 nM
same,GI50,BT-549 breast,2410 nM
same,TGI,BT-549 breast,6410 nM
same,GI50,PC-3 prostate,1580 nM
same,TGI,PC-3 prostate,3230 nM
same,GI50,SF-295 CNS,1690 nM
same,TGI,SF-295 CNS,3120 nM
same,GI50,NCI-H460 lung,1900 nM
same,TGI,NCI-H460 lung,3720 nM
same,GI50,HL-60(TB) leukemia,1900 nM
same,TGI,HL-60(TB) leukemia,3820 nM
same,GI50,HCC-2998 colon,1670 nM
same,TGI,HCC-2998 colon,3160 nM
